Test results taken from ChEMBL document CHEMBL3632591, “Discovery and structural diversity of the hepatitis C virus NS3/4A serine protease inhibitor series leading to clinical candidate IDX320” (Bioorg Med Chem Lett, 2015).

Legend:
[1] = AUC (infinity) in Cynomolgus monkey at 2 mg/kg, iv administered as single dose; type: ADME, organism-based, Macaca fascicularis; design: dose 2 mg/kg, route intravenous, time infinity; settings: in vivo
[2] = Cmax in CD-1 mouse at 2 mg/kg, po administered as single dose; type: ADME, organism-based; design: dose 2 mg/kg, route oral; settings: in vivo
[3] = Inhibition of HCV genotype 3a NS3/4A protease; design: species or system Hepatitis C virus subtype 3a
[4] = Half life in CD-1 mouse at 2 mg/kg, iv administered as single dose measured after 24 hrs; type: ADME, organism-based; settings: in vivo
[5] = Efflux ratio of permeability in human Caco2 cells; type: ADME, cell-based; settings: Caco-2
Hepatitis C virus = assay: Antiviral activity against HCV genotype 1b infected in human HuH7 cells after 3 days by luciferase assay; type: functional, organism-based, Hepacivirus hominis; settings: Huh-7, 72 h
[6] = Volume of distribution in CD-1 mouse at 2 mg/kg, iv administered as single dose measured after 24 hrs; type: ADME, organism-based; settings: in vivo
[7] = Inhibition of recombinant full length HCV genotype 1b NS3/4A protease by FRET assay; design: species or system Hepatitis C virus subtype 1b
[8] = Cytotoxicity against human hepatocytes; type: cell-based, Hepatocyte
[9] = Half life in Sprague-Dawley rat at 10 mg/kg, po administered as single dose; type: ADME, organism-based; settings: in vivo
[10] = AUC (infinity) in Sprague-Dawley rat at 10 mg/kg, po administered as single dose; type: ADME, organism-based; design: dose 10 mg/kg, time infinity, route oral; settings: in vivo
[11] = Tmax in Sprague-Dawley rat at 10 mg/kg, po administered as single dose; type: ADME, organism-based; settings: in vivo
[12] = Oral bioavailability in Cynomolgus monkey at 2 mg/kg administered as single dose; type: ADME, organism-based, Macaca fascicularis; settings: in vivo
Rhesus monkey [13] = assay: Toxicity in monkey assessed as effect on cardiovascular system at 250 mg/kg, po administered as single dose; type: organism-based, Macaca mulatta; settings: in vivo
[14] = Tmax in CD-1 mouse at 2 mg/kg, po administered as single dose; type: ADME, organism-based; settings: in vivo
[15] = Tmax in Sprague-Dawley rat at 2 mg/kg, iv administered as single dose; type: ADME, organism-based; settings: in vivo
[16] = Plasma concentration in CD-1 mouse at 2 mg/kg, iv administered as single dose measured after 24 hrs; type: ADME, organism-based
[17] = Inhibition of HCV genotype 1a NS3/4A protease; design: species or system Hepatitis C virus subtype 1a
[18] = Cytotoxicity against monkey hepatocytes; type: cell-based, Macaca mulatta, Hepatocyte; settings: rhesus monkey
[19] = Half life in Cynomolgus monkey at 2 mg/kg, iv administered as single dose; type: ADME, organism-based, Macaca fascicularis; settings: in vivo
Rhesus monkey [20] = assay: Toxicity in monkey assessed as effect on respiratory system at 250 mg/kg, po administered as single dose; type: organism-based, Macaca mulatta; settings: in vivo
[21] = AUC (0 to 24 hrs) in CD-1 mouse at 2 mg/kg, iv administered as single dose measured after 24 hrs; type: ADME, organism-based; design: time < 24 hr, dose 2 mg/kg, route intravenous; settings: in vivo
[22] = Plasma concentration in CD-1 mouse at 2 mg/kg, po administered as single dose measured after 24 hrs; type: ADME, organism-based
[23] = Tmax in Cynomolgus monkey at 2 mg/kg, po administered as single dose; type: ADME, organism-based, Macaca fascicularis; settings: in vivo
Mus musculus = assay: Toxicity in mouse assessed as effect on renal function at 250 mg/kg, po administered as single dose; type: organism-based; settings: in vivo
Cytochrome P450 2B6 = target: T1, Cytochrome P450 2B6 (Homo sapiens, UniProt P20813); assay: Inhibition of human CYP2B6; type: ADME
T1 sequence (P20813 whole entry): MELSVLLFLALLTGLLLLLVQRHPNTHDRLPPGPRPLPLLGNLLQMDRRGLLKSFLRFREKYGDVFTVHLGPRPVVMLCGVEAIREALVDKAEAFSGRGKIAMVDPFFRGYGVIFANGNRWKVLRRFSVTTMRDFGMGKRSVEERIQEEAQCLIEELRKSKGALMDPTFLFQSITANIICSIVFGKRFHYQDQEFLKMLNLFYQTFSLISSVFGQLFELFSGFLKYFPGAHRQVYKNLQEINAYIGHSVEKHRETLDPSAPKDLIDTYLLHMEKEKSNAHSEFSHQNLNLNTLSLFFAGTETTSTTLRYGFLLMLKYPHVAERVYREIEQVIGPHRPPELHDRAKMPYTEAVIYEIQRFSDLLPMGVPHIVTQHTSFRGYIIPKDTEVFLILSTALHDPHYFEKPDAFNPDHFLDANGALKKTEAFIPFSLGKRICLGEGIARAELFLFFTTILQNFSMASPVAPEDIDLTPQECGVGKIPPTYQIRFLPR

[24] = Cytotoxicity against mouse hepatocytes; type: cell-based, Hepatocyte
Cytochrome P450 3A4 = Cytochrome P450 3A4 (Homo sapiens, UniProt P08684); assay: Inhibition of human CYP3A4; type: ADME
Cytochrome P450 1A2 = target: T2, Cytochrome P450 1A2 (Homo sapiens, UniProt P05177); assay: Inhibition of human CYP1A2; type: ADME
T2 sequence (P05177 whole entry): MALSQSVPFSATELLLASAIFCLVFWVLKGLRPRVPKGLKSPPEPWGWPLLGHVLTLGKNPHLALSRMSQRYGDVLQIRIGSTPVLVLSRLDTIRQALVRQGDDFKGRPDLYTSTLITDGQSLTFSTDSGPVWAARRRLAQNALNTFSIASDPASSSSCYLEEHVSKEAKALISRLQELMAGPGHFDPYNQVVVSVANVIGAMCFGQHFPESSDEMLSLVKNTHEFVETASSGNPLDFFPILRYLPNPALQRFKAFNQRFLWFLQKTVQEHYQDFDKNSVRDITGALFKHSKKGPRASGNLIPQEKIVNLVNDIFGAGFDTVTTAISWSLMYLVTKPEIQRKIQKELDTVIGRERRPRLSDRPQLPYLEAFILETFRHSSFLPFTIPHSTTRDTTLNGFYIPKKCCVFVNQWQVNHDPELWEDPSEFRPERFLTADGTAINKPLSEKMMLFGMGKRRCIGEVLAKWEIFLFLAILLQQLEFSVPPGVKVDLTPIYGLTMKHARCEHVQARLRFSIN

[25] = Oral bioavailability in CD-1 mouse at 2 mg/kg administered as single dose; type: ADME, organism-based; settings: in vivo
[26] = Clearance in Sprague-Dawley rat at 2 mg/kg, iv administered as single dose; type: ADME, organism-based; settings: in vivo
[27] = Cytotoxicity against rat hepatocytes; type: cell-based, Hepatocyte
[28] = Apparent permeability across human Caco2 cells; type: ADME, cell-based; settings: Caco-2
[29] = Inhibition of HCV genotype 2a NS3/4A protease; design: species or system Hepatitis C virus subtype 2a
[30] = Clearance in Cynomolgus monkey at 2 mg/kg, iv administered as single dose; type: ADME, organism-based, Macaca fascicularis; settings: in vivo
Cytochrome P450 2C9 = Cytochrome P450 2C9 (Homo sapiens, UniProt P11712); assay: Inhibition of human CYP2C9; type: ADME
[31] = Plasma concentration in Cynomolgus monkey at 2 mg/kg, iv administered as single dose measured after 24 hrs; type: ADME, organism-based, Macaca fascicularis
[32] = Inhibition of cellular protease (unknown origin); settings: Homo sapiens
[33] = Half life in Sprague-Dawley rat at 2 mg/kg, iv administered as single dose; type: ADME, organism-based; settings: in vivo
[34] = Ratio of drug level in Sprague-Dawley rat liver to plasma at 10 mg/kg, po measured at 24 hrs; type: ADME, organism-based; settings: liver and plasma
[35] = Cmax in Sprague-Dawley rat plasma at 2 mg/kg, iv administered as single dose measured after 8 hrs; type: ADME, organism-based; design: dose 2 mg/kg, route intravenous
[36] = AUCt in Sprague-Dawley rat at 2 mg/kg, iv administered as single dose; type: ADME, organism-based; settings: in vivo
[37] = Cmax in Cynomolgus monkey at 2 mg/kg, po administered as single dose; type: ADME, organism-based, Macaca fascicularis; design: dose 2 mg/kg, route oral; settings: in vivo

Chain of Cytochrome P450 3A4 (P08684 whole entry): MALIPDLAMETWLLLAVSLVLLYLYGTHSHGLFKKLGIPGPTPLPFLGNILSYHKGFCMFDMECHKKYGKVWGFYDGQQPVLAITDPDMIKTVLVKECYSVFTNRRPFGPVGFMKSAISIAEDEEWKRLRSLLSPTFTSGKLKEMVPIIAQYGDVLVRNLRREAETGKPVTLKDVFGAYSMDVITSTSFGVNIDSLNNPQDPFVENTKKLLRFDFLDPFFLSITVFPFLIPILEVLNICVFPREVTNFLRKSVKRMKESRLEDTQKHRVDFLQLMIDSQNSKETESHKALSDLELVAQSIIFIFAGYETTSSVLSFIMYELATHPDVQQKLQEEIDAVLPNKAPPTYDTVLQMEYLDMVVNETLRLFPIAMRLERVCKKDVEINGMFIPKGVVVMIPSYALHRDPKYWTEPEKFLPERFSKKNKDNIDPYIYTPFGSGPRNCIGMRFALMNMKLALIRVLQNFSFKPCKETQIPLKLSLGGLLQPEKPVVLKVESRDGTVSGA
Chain of Cytochrome P450 2C9 (P11712 whole entry): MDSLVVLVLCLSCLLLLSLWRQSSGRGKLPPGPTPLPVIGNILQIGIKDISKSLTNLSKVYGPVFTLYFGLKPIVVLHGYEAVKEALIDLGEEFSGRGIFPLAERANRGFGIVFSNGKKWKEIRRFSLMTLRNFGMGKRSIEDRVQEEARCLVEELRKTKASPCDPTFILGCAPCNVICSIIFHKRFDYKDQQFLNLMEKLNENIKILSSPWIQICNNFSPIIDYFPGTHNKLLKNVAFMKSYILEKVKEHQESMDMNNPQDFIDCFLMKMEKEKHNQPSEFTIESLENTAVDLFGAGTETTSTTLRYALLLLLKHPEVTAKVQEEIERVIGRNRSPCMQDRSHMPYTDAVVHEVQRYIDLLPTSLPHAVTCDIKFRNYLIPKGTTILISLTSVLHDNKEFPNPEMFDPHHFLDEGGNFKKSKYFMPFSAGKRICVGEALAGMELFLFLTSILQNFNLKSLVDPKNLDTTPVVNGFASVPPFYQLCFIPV

Work on `COc1ccc2c(O[C@H]3CCN4C(=O)N(C)CCCCC=C[C@@H]5C[C@@]5(C(=O)NS(=O)(=O)C5(C)CC5)NC(=O)[C@@H]4C3)cc(-c3nc(C(F)(F)F)cs3)nc2c1C` yielded an AUC(0-inf) [1] of 9580 ng·h/mL, a Cmax [2] of 174 ng/mL and an IC50 [3] of 0.023 µM. For the same compound, the half-life [4] was 6.3 h, the efflux ratio [5] was 2.7 and the EC50 (Hepatitis C virus) was 0.0007 µM. It also gave a Vd [6] of 4.4 L/kg, an IC50 [7] of 0.0005 µM and a CC50 [8] greater than 10 µM. For the same compound, the half-life [9] was 3.6 h, the AUC(0-inf) [10] was 3970 ng·h/mL and the Tmax [11] was 1 h. The bioavailability [12] was 107%, the Activity (Rhesus monkey [13]) was “Non-toxic” and the Tmax [14] was 2 h. It also gave a Tmax [15] of 4.8 min, a concentration at 24 h [16] of 7.9 ng/mL and an IC50 [17] of 0.0008 µM. The CC50 [18] was greater than 10 µM, the half-life [19] was 10.3 h and the Activity (Rhesus monkey [20]) was “Non-toxic”. It also gave an AUC(0-t) at 24 h [21] of 4060 ng·h/mL, a concentration at 24 h [22] of 1.5 ng/mL and a Tmax [23] of 1 h. For the same compound, the Activity (Mus musculus) was “Non-toxic”, the IC50 (Cytochrome P450 2B6) was no less than 10 µM and the CC50 [24] was greater than 10 µM. It also gave an IC50 (Cytochrome P450 3A4) of no less than 10 µM, an IC50 (Cytochrome P450 1A2) of no less than 10 µM and a bioavailability [25] of 34.7%. It also gave a clearance [26] of 18.8 mL/min/kg, a CC50 [27] greater than 10 µM and a Papp [28] of 1.8 ×10⁻⁶ cm/s. It also gave an IC50 [29] of 0.0008 µM, a clearance [30] of 3.83 mL/min/kg and an IC50 (Cytochrome P450 2C9) of no less than 10 µM. The concentration at 24 h [31] was 66 ng/mL, the IC50 [32] was greater than 10 µM and the half-life [33] was 1.5 h. It also gave a Kp at 24 h [34] of 61.7, a Cmax [35] of 2060 ng/mL and an AUC(0-t) [36] of 1750 ng·h/mL. The Cmax [37] was 1030 ng/mL.
